Laboratory results from ChEMBL document CHEMBL1201862, “PubChem BioAssay data set” (2004).
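Each compound was tested at five concentrations against cells in 96-well plates for 48 hours. Here, GI50 denotes the concentration required for 50% inhibition of growth.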 The source made the active and inactive calls. Cut-off read from the data, not from the text of the source: active = GI50 up to about 1.1 µM and inactive = higher.

Assays:
Test in all cases: NCI anticancer screen, dose series, 48 h
[1] = test system: HCC 2998
[2] = test system: PC-3
[3] = test system: IGROV-1
[4] = test system: RXF 393
[5] = test system: OVCAR-3
[6] = test system: MDA-MB-231
[7] = test system: SK-OV-3
[8] = test system: TK-10
[9] = test system: MCF7
[10] = test system: NCI-H522
[11] = test system: DU-145
[12] = test system: M14
[13] = test system: SN12C
[14] = test system: COLO 205
[15] = test system: UACC-62
[16] = test system: SF-539
[17] = test system: SK-MEL-28
[18] = test system: Malme-3M
[19] = test system: SNB-75
[20] = test system: OVCAR-8
[21] = test system: OVCAR-4
[22] = test system: LOX IMVI
[23] = test system: ACHN
[24] = test system: 786-0
[25] = test system: NCI-H460
[26] = test system: SNB-19
[27] = test system: HCT-15
[28] = test system: NCI-H23
[29] = test system: HCT-116
[30] = test system: SF-268
[31] = test system: HOP-62
[32] = test system: MOLT-4
[33] = test system: SK-MEL-5
[34] = test system: HT-29
[35] = test system: UO-31
[36] = test system: BT-549
[37] = test system: SW-620
[38] = test system: SR
[39] = test system: Hs-578T
[40] = test system: SF-295
[41] = test system: RPMI-8226
[42] = test system: MDA-MB-435
[43] = test system: K562
[44] = test system: CAKI-1
[45] = test system: MDA-N
[46] = test system: HL-60
[47] = test system: SK-MEL-2
[48] = test system: NCI-H226
[49] = test system: T47D
[50] = test system: UACC-257
[51] = test system: KM12
[52] = test system: U-251
[53] = test system: OVCAR-5
[54] = test system: A549
[55] = test system: CCRF-CEM
[56] = test system: HOP-92
[57] = test system: EKVX
[58] = test system: NCI/ADR-RES
[59] = test system: A498

In the case of `CCOc1nc2c(N3CCCC3)nc(N3CCNCC3)nc2nc1NCc1ccccc1`, the GI50 [1] was 1.34 µM (inactive), the GI50 [2] was 1.46 µM (inactive) and the GI50 [3] was 1.19 µM (inactive). The GI50 [4] was 1.03 µM (active), the GI50 [5] was 0.887 µM (active) and the GI50 [6] was 1.45 µM (inactive). The GI50 [7] was 1.57 µM (inactive), the GI50 [8] was 1.9 µM (inactive) and the GI50 [9] was 1.53 µM (inactive). The GI50 [10] was 0.82 µM (active), the GI50 [11] was 0.944 µM (active) and the GI50 [12] was 1.61 µM (inactive). For the same compound, the GI50 [13] was 1.5 µM (inactive), the GI50 [14] was 0.574 µM (active) and the GI50 [15] was 1.83 µM (inactive). For the same compound, the GI50 [16] was 1.52 µM (inactive), the GI50 [17] was 1.79 µM (inactive) and the GI50 [18] was 1.89 µM (inactive). The GI50 [19] was 0.975 µM (active), the GI50 [20] was 1.73 µM (inactive) and the GI50 [21] was 2.42 µM (inactive). The GI50 [22] was 1.36 µM (inactive), the GI50 [23] was 1.58 µM (inactive) and the GI50 [24] was 1.39 µM (inactive). The GI50 [25] was 1.41 µM (inactive), the GI50 [26] was 1.51 µM (inactive) and the GI50 [27] was 1.63 µM. For the same compound, the GI50 [28] was 1.51 µM (inactive), the GI50 [29] was 0.923 µM (active) and the GI50 [30] was 1.56 µM (inactive). The GI50 [31] was 1.05 µM (active), the GI50 [32] was 1.09 µM (active) and the GI50 [33] was 1.41 µM (inactive). The GI50 [34] was 0.83 µM (active), the GI50 [35] was 1.32 µM (inactive) and the GI50 [36] was 1.61 µM (inactive). For the same compound, the GI50 [37] was 1.73 µM (inactive), the GI50 [38] was 1.31 µM (inactive) and the GI50 [39] was 1.72 µM (inactive). The GI50 [40] was 1.76 µM (inactive), the GI50 [41] was 1.39 µM (inactive) and the GI50 [42] was 1.34 µM (inactive). For the same compound, the GI50 [43] was 1.2 µM (inactive), the GI50 [44] was 1.85 µM (inactive) and the GI50 [45] was 1.11 µM (active). The GI50 [46] was 1.4 µM (inactive), the GI50 [47] was 1.66 µM (inactive) and the GI50 [48] was 1.65 µM (inactive). The GI50 [49] was 1.46 µM (inactive), the GI50 [50] was 1.74 µM (inactive) and the GI50 [51] was 1.34 µM (inactive). For the same compound, the GI50 [52] was 1.17 µM (inactive), the GI50 [53] was 4.14 µM (inactive) and the GI50 [54] was 1.74 µM (inactive). For the same compound, the GI50 [55] was 1.26 µM (inactive), the GI50 [56] was 1.13 µM (inactive) and the GI50 [57] was 2.1 µM (inactive). For the same compound, the GI50 [58] was 2.77 µM (inactive).

With `CNC(c1ccncc1)C(NC)c1ccncc1` (centres undefined) the GI50 [1] was > 100 µM (inactive), the GI50 [2] was > 100 µM (inactive) and the GI50 [3] was > 100 µM (inactive). For the same compound, the GI50 [4] was > 100 µM (inactive), the GI50 [5] was > 100 µM (inactive) and the GI50 [6] was > 100 µM (inactive). For the same compound, the GI50 [7] was > 100 µM (inactive), the GI50 [8] was > 100 µM (inactive) and the GI50 [9] was > 100 µM (inactive). For the same compound, the GI50 [10] was > 100 µM (inactive), the GI50 [11] was > 100 µM (inactive) and the GI50 [12] was > 100 µM (inactive). For the same compound, the GI50 [13] was > 100 µM (inactive), the GI50 [14] was > 100 µM (inactive) and the GI50 [15] was > 100 µM (inactive). The GI50 [17] was > 100 µM (inactive), the GI50 [18] was > 100 µM (inactive) and the GI50 [19] was > 100 µM (inactive). The GI50 [20] was > 100 µM (inactive), the GI50 [21] was > 100 µM (inactive) and the GI50 [22] was > 100 µM (inactive). The GI50 [59] was > 100 µM (inactive), the GI50 [23] was > 100 µM (inactive) and the GI50 [24] was > 100 µM (inactive). The GI50 [26] was > 100 µM (inactive), the GI50 [27] was > 100 µM and the GI50 [28] was > 100 µM (inactive). For the same compound, the GI50 [29] was > 100 µM (inactive), the GI50 [30] was > 100 µM (inactive) and the GI50 [31] was > 100 µM (inactive). For the same compound, the GI50 [32] was > 100 µM (inactive), the GI50 [33] was > 100 µM (inactive) and the GI50 [34] was > 100 µM (inactive). The GI50 [35] was > 100 µM (inactive), the GI50 [36] was > 100 µM (inactive) and the GI50 [37] was > 100 µM (inactive). For the same compound, the GI50 [38] was > 100 µM (inactive), the GI50 [39] was 90.8 µM (inactive) and the GI50 [40] was > 100 µM (inactive). The GI50 [41] was > 100 µM (inactive), the GI50 [42] was > 100 µM (inactive) and the GI50 [43] was > 100 µM (inactive). For the same compound, the GI50 [44] was > 100 µM (inactive), the GI50 [45] was > 100 µM (inactive) and the GI50 [46] was > 100 µM (inactive). For the same compound, the GI50 [47] was > 100 µM (inactive), the GI50 [48] was > 100 µM (inactive) and the GI50 [49] was > 100 µM (inactive). The GI50 [50] was > 100 µM (inactive), the GI50 [51] was > 100 µM (inactive) and the GI50 [52] was > 100 µM (inactive). The GI50 [53] was > 100 µM (inactive), the GI50 [54] was > 100 µM (inactive) and the GI50 [55] was > 100 µM (inactive). For the same compound, the GI50 [57] was > 100 µM (inactive) and the GI50 [58] was > 100 µM (inactive).
